Tests used:
adult ACC neurons [1] = test: LTP induced by EPSPs-APs protocol in ACC slices; format: cell-based, mouse; conditions: 0.3 μM
Protocol: (§1) Coronal brain slices ([…]) from 6-8-week-old C57BL/6 mice, containing ACC or hippocampus, were prepared using standard methods (Wei et al., 2001). Slices were transferred to a submerged recovery chamber containing oxygenated (95% O2 and 5% CO2) artificial cerebrospinal fluid (ACSF) (in mM: 124 NaCl, 4.4 KCl, 2 CaCl2, 1 MgSO4, 25 NaHCO3, 1 NaH2PO4, 10 glucose) at room temperature for at least 1 h.
(§2) Experiments were performed in a recording chamber on the stage of an Axioskop 2FS microscope with infrared DIC optics for visualizing whole-cell patch clamp recordings. EPSCs were recorded from layer II-III neurons using an Axon 200B amplifier (Axon Instruments, CA) and stimulations were delivered using a bipolar tungsten stimulating electrode placed in layer V of the ACC. In hippocampal slices, EPSCs were evoked by stimulating the Schaffer collateral-commissural pathway. EPSCs were induced by repetitive stimulations at 0.02 Hz and neurons were voltage clamped at −70 mV. The recording pipettes (3-5 MΩ) were filled with solution containing (mM) 145 K-gluconate, 5 NaCl, 1 MgCl2, 0.2 EGTA, 10 HEPES, 2 Mg-ATP, and 0.1 Na3-GTP (adjusted to pH 7.2 with KOH). After obtaining stable EPSCs for 10 min, three kinds of LTP induction paradigms were used within 12 min after establishing the whole-cell configuration to prevent wash out effect on LTP induction (Tsvetkov et al., 2002). The first protocol involved paired presynaptic 80 pulses at 2 Hz with postsynaptic depolarization at +30 mV (referred to as pairing training). The second involved paired 3 presynaptic stimuli that caused 3 EPSPs (10 ms ahead) with 3 postsynaptic APs at 30 Hz, paired 15 times every 5 s (named as EPSPs-APs protocol). The third involved theta-burst stimulation (5 trains of burst with 4 pulses at 100 Hz, at 200 ms interval; repeated 4 times at intervals of 10 s; named as TBS). The NMDAR-mediated component of EPSCs was pharmacologically isolated in Mg^2+-free ACSF containing: CNQX (20 μM), glycine (1 μM) and picrotoxin (100 μM). The patch electrodes contained (in mM) 102 cesium gluconate, 5 TEA-chloride, 3.7 NaCl, 11 BAPTA, 0.2 EGTA, 20 HEPES, 2 MgATP, 0.3 NaGTP, and 5 QX-314 chloride (adjusted to pH 7.2 with CsOH). Neurons were voltage clamped at −60 mV and NMDARs-mediated EPSCs were evoked at 0.05 Hz. Picrotoxin (100 μM) was always present to block GABAA receptor-mediated inhibitory synaptic currents. The access resistance was 15-30 MΩ and was monitored throughout the experiment. Data were discarded if access resistance changed by more than 15% during an experiment. Results are expressed as means±SEM. Statistical comparisons were performed using the Student t-test. […]

adult ACC neurons [2] = test: LTP induced by theta-burst stimulation (TBS) in ACC slices; format: cell-based, mouse; conditions: 0.3 μM
Protocol: as §1, §2

[3] = tested on: NR2A, NR1, GluR1, and actin; test: Western blot of other membrane proteins in ACC after siRNA electroporation; format: in vivo, mouse; conditions: four days after electroporation, vs control siRNA
Protocol: Equal amounts of protein from the ACC and hippocampus were separated and electrotransferred onto PDVF membranes (Invitrogen), which were probed with anti-NR2A, anti-NR2B (Chemicon), and anti-PSD-95 (ABR) and with β-actin (Sigma) as a loading control. The membranes were incubated with horseradish peroxidase-conjugated secondary antibodies (anti-mouse IgG for PSD-95 and anti-rabbit IgG for the other primary antibodies), and bands were visualized using an ECL system (Perkin Elmer). Synaptosomal membrane fractions (LP1) were prepared as previously described (Dunah and Standaert, 2001) and solubilized using 1% SDS in TEVP buffer: 10 mM Tris-HCl, pH 7.4, 1 mM EDTA, 1 mM EGTA, 1× protease inhibitor cocktail (Sigma), and 1× phosphatase inhibitor cocktail 1 and 2 (Sigma). […] Results are expressed as means±SEM. […]
To inhibit NR2B expression specifically in the prefrontal cortex, including the ACC, siRNA was bilaterally delivered against NR2B with a reporter plasmid encoding EGFP by microelectroporation (Wei et al., 2003) (FIG. 8A). […] The expression levels of other NMDAR subunits (NR2A and NR1) and AMPA receptor subunit GluR1 were measured, and actin was used as a control in the ACCs of NR2B siRNA and control siRNA electroporated mice.

Compound | potentiation after EPSPs-APs protocol, % of baseline (adult ACC neurons [1]) | effect on LTP induced by EPSPs-APs protocol (adult ACC neurons [1]; FIG. 4B) | LTP after TBS, % of baseline (adult ACC neurons [2]) | effect on LTP induced by TBS (adult ACC neurons [2]; FIG. 4E) | expression levels of NR2A, NR1, GluR1, and actin [3]
C[C@@H](CN1CCC(Cc2ccccc2)CC1)[C@@H](O)c1ccc(O)cc1 [Ro25-6981] | 114.4±11.5% | blocked | 105.5±8.3% | blocked | 
NR2B siRNA: siRNA corresponding to NR2B, sense 5′-GGAUGAGUCCUCCAUGUUCtt-3′, antisense 5′-GAACAUGGAGGACUCAUCCtt-3′, Silencer Pre-designed siRNA ID #61879, Ambion (sense GGAUGAGUCCUCCAUGUUCTT; antisense GAACAUGGAGGACUCAUCCTT; chemistry not given here) |  |  |  |  | not significantly changed
